According to ChEMBL document CHEMBL1201862, “PubChem BioAssay data set” (2004):
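Protocol summary: plate cells (96-well), add compound at 5 concentrations, incubate 48 h, interpolate endpoints linearly. Here, GI50 denotes the concentration required for 50% inhibition of growth.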 Activity calls are given as the source filed them. No stated cut-off is given here; in the data, active = GI50 up to about 1.1 µM and inactive = higher.

Assays:
Test in all cases: DTP human tumour cell line panel, 48 h
DLD-1 = system: DLD-1
KM-20L2 = system: KM-20L2
M19-MEL = system: M19-MEL
SNB-78 = system: SNB-78
DMS-273 = system: DMS-273
XF498 = system: XF498
HOP-18 = system: HOP-18

Measured: GI50

NCCCCNCCCNC(=O)c1nc(-c2nc(CCN)sc2Cl)sc1Cl
inactive: DLD-1 83 µM | KM-20L2 > 100 µM | M19-MEL > 100 µM | SNB-78 > 100 µM | DMS-273 50.4 µM | XF498 > 100 µM

CCCc1[nH]c(SCCCCCCCCSc2nc(-c3ccc(F)cc3)c(CCC)[nH]2)nc1-c1ccc(F)cc1
inactive: HOP-18 6.41 µM | KM-20L2 16.1 µM | M19-MEL 29.9 µM | SNB-78 26.2 µM | DMS-273 44.3 µM
